According to patent publication US12281149B2, “Modulators of G-protein coupled receptors” (priority 2021, dated 2025):
*1 amine or outer side, *2 acyl side, *3 side chain or, on linkers, in order; H or OH if unused. Where a SMILES comes first, the peptide text is derived from it. Side-chain parts run from the residue outwards. [ ]: non-standard residue; d: D form. The star is where a group is joined. Isobutyryl(2-(3-CN-5-F-Ph)) = CC(C)(C(=O)*)c1cc(F)cc(C#N)c1; C20 diacid = O=C(O)CCCCCCCCCCCCCCCCCCC(=O)*; X49 = O=C([C@H](CN[*:1])c1ccccc1)[*:2]; γGlu = O=C(O)[C@H](CCC(=O)[*:2])N[*:1]; X34 = CCC(CC)(C(=O)*)c1ccc(Cl)c(Cl)c1; X1 = CC(C)(C(=O)*)c1cccnc1; AEEA = NCCOCCOCC(=O)O; Aib = CC(C)(N)C(=O)O; βAla = NCCC(=O)O

Legend:
Assay type in all cases: cell-based
GLP-1 receptor [1] = biological target: T1, GLP-1 receptor (Homo sapiens, UniProt P43220); experiment: PathHunter β-arrestin assay, GLP-1 receptor; set-up: host or cells: PathHunter CHO-K1 GLP1R β-Arrestin Cell Line; settings: β-arrestin-2 recruitment, PathHunter CHO-K1 GLP1R β-Arrestin Cell Line, 90 min at 37° C.; normalized to GLP-1; read-out: GLP-1R β Arrestin EC50
T1 sequence (P43220 24-463): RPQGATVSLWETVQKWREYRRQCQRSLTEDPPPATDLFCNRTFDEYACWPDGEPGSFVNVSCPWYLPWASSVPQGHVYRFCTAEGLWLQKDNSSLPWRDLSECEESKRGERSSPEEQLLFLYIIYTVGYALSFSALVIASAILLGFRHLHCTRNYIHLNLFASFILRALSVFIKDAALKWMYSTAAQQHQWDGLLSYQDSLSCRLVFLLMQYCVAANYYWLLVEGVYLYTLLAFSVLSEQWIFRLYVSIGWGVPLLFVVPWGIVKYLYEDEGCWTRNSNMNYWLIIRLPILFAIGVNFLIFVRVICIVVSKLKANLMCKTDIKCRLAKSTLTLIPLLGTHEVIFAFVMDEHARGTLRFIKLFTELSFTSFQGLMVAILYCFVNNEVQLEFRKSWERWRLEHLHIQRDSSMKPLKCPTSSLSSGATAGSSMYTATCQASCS

GLP-1 receptor [2] = biological target: T1, GLP-1 receptor; experiment: HitHunter cAMP assay, GLP-1 receptor; settings: for EC50: CHO cells stably expressing human GLP-1 receptor, cAMP accumulation, 30 min, read-out: EC50 GLP-1R; for Emax: CHO cells, cAMP, normalized to maximum signal from GLP-1 (high) and DMSO (low), read-out: Emax GLP-1R
GIP receptor [3] = biological target: T2, GIP receptor (Homo sapiens, UniProt P48546); experiment: HitHunter cAMP assay, GIP receptor; settings: for EC50: CHO cells stably expressing GIP receptor, cAMP accumulation, 30 min, read-out: EC50 GIP-1R; for Emax: CHO cells, cAMP, normalized to maximum signal from GIP (high) and DMSO (low), read-out: Emax GIP-1R
T2 sequence (P48546 22-466): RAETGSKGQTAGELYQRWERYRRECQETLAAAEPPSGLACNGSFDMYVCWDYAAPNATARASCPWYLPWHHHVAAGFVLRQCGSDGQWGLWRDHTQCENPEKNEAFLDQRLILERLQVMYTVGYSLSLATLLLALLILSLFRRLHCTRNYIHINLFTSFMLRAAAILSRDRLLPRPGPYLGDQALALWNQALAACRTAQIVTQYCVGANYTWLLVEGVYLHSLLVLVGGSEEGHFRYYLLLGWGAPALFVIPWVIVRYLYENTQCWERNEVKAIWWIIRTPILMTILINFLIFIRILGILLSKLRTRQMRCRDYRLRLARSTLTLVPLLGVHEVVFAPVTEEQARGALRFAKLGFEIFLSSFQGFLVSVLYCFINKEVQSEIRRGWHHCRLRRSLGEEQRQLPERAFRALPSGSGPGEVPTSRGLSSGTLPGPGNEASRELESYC

GIP receptor [4] = biological target: T2, GIP receptor; experiment: PathHunter β-arrestin assay, GIP receptor; set-up: host or cells: PathHunter CHO-K1 GIPR β-Arrestin Cell Line; settings: β-arrestin-2 recruitment, PathHunter CHO-K1 GIPR β-Arrestin Cell Line, 90 min at 37° C.; normalized to GIP; read-out: GIPR β Arrestin EC50

| SMILES | EC50 (GLP-1 receptor [1]) | EC50 (GLP-1 receptor [2]) | Emax (GLP-1 receptor [2]) | EC50 (GIP receptor [3]) | Emax (GIP receptor [3]) | EC50 (GIP receptor [4]) |
| --- | --- | --- | --- | --- | --- | --- |
| CC[C@H](C)[C@H](NC(=O)[C@H](CC(C)C)NC(=O)[C@H](Cc1c[nH]c2ccccc12)NC(=O)[C@H](CCC(N)=O)NC(=O)[C@@H](NC(=O)[C@H](Cc1ccccc1)NC(=O)[C@H](C)NC(=O)[C@H](CCCCNC(=O)COCCOCCNC(=O)COCCOCCNC(=O)CC[C@H](NC(=O)CCCCCCCCCCCCCCCCCCC(=O)O)C(=O)O)NC(=O)[C@H](CCC(N)=O)NC(=O)[C@H](C)NC(=O)[C@@H](NC(=O)[C@H](CCCCN)NC(=O)[C@H](CC(=O)O)NC(=O)[C@H](CC(C)C)NC(=O)C(C)(C)NC(=O)[C@@H](NC(=O)[C@H](CO)NC(=O)[C@H](Cc1ccc(O)cc1)NC(=O)[C@H](CC(=O)O)NC(=O)[C@H](CO)NC(=O)[C@@H](NC(=O)[C@H](Cc1ccccc1)NC(=O)[C@@H](NC(=O)CNC(=O)[C@H](CCC(=O)O)NC(=O)[C@H](CNC(=O)C(C)(C)c1cc(F)cc(C#N)c1)c1ccccc1)[C@@H](C)O)[C@@H](C)O)[C@@H](C)CC)[C@@H](C)CC)C(C)C)C(=O)N[C@@H](C)C(=O)NCC(=O)NCC(=O)N1CCC[C@H]1C(=O)N[C@@H](CO)C(=O)N[C@@H](CO)C(=O)NCC(=O)N[C@@H](C)C(=O)N1CCC[C@H]1C(=O)N1CCC[C@H]1C(=O)N1CCC[C@H]1C(=O)N[C@@H](CO)C(N)=O [Compound 170] ({Isobutyryl(2-(3-CN-5-F-Ph))}-[X49]EGTFTSDYSI[Aib]LDKIAQK([AEEA-AEEA-γGlu-C20 diacid])AFVQWLIAGGPSSGAPPPS-NH2) | > 1000 nM | 100 to 1000 nM | 57% | 100 to 1000 nM | 37% | > 1000 nM |
| CC[C@H](C)[C@H](NC(=O)[C@H](CO)NC(=O)[C@H](Cc1ccc(O)cc1)NC(=O)[C@H](CC(=O)O)NC(=O)[C@H](CO)NC(=O)[C@@H](NC(=O)[C@H](Cc1ccccc1)NC(=O)[C@@H](NC(=O)CNC(=O)[C@H](CCC(=O)O)NC(=O)CCNC(=O)C1(n2cccn2)CCOC(C)C1)[C@@H](C)O)[C@@H](C)O)C(=O)N[C@@H](Cc1ccc(O)cc1)C(=O)N[C@@H](CC(C)C)C(=O)N[C@@H](CC(=O)O)C(=O)N[C@@H](CCCCN)C(=O)N[C@@H](CCC(N)=O)C(=O)N[C@@H](C)C(=O)N[C@@H](C)C(=O)NC(C)(C)C(=O)N[C@@H](CCC(=O)O)C(=O)N[C@@H](Cc1ccccc1)C(=O)N[C@H](C(=O)N[C@@H](CC(N)=O)C(=O)N[C@@H](Cc1c[nH]c2ccccc12)C(=O)N[C@@H](CC(C)C)C(=O)N[C@@H](CC(C)C)C(=O)N[C@@H](C)C(=O)NCC(=O)NCC(=O)N1CCC[C@H]1C(=O)N[C@@H](CO)C(=O)N[C@@H](CO)C(=O)NCC(=O)N[C@@H](C)C(=O)N1CCC[C@H]1C(=O)N1CCC[C@H]1C(=O)N1CCC[C@H]1C(=O)N[C@@H](CO)C(=O)N[C@@H](CCCCNC(=O)COCCOCCNC(=O)COCCOCCNC(=O)CC[C@H](NC(=O)CCCCCCCCCCCCCCCCCCC(=O)O)C(=O)O)C(N)=O)C(C)C (stereo partly drawn) [Compound 101] | > 1000 nM | 1 to 10 nM | 93% | 10 to 100 nM | 96% | > 1000 nM |
| CC[C@H](C)[C@H](NC(=O)[C@H](CC(C)C)NC(=O)[C@H](Cc1c[nH]c2ccccc12)NC(=O)[C@H](CCC(N)=O)NC(=O)[C@@H](NC(=O)[C@H](Cc1ccccc1)NC(=O)[C@H](C)NC(=O)[C@H](CCCCNC(=O)COCCOCCNC(=O)COCCOCCNC(=O)CC[C@H](NC(=O)CCCCCCCCCCCCCCCCCCC(=O)O)C(=O)O)NC(=O)[C@H](CCC(N)=O)NC(=O)[C@H](C)NC(=O)[C@@H](NC(=O)[C@H](CCCCN)NC(=O)[C@H](CC(=O)O)NC(=O)[C@H](CC(C)C)NC(=O)C(C)(C)NC(=O)[C@@H](NC(=O)[C@H](CO)NC(=O)[C@H](Cc1ccc(O)cc1)NC(=O)[C@H](CC(=O)O)NC(=O)[C@H](CO)NC(=O)[C@@H](NC(=O)[C@H](Cc1ccccc1)NC(=O)[C@@H](NC(=O)CNC(=O)[C@H](CCC(=O)O)NC(=O)CCNC(=O)C(CC)(CC)c1ccc(Cl)c(Cl)c1)[C@@H](C)O)[C@@H](C)O)[C@@H](C)CC)[C@@H](C)CC)C(C)C)C(=O)N[C@@H](C)C(=O)NCC(=O)NCC(=O)N1CCC[C@H]1C(=O)N[C@@H](CO)C(=O)N[C@@H](CO)C(=O)NCC(=O)N[C@@H](C)C(=O)N1CCC[C@H]1C(=O)N1CCC[C@H]1C(=O)N1CCC[C@H]1C(=O)N[C@@H](CO)C(N)=O [Compound 175] ({X34-βAla}-EGTFTSDYSI[Aib]LDKIAQK([AEEA-AEEA-γGlu-C20 diacid])AFVQWLIAGGPSSGAPPPS-NH2) | > 1000 nM | 1 to 10 nM | 94% | 1 to 10 nM | 110% | < 1000 nM |
| CC[C@H](C)[C@H](NC(=O)[C@H](CC(C)C)NC(=O)[C@H](Cc1c[nH]c2ccccc12)NC(=O)[C@H](CCC(N)=O)NC(=O)[C@@H](NC(=O)[C@H](Cc1ccccc1)NC(=O)[C@H](C)NC(=O)[C@H](CCCCNC(=O)COCCOCCNC(=O)COCCOCCNC(=O)CC[C@H](NC(=O)CCCCCCCCCCCCCCCCCCC(=O)O)C(=O)O)NC(=O)[C@H](CCC(N)=O)NC(=O)[C@H](C)NC(=O)[C@@H](NC(=O)[C@H](CCCCN)NC(=O)[C@H](CC(=O)O)NC(=O)[C@H](CC(C)C)NC(=O)C(C)(C)NC(=O)[C@@H](NC(=O)[C@H](CO)NC(=O)[C@H](Cc1ccc(O)cc1)NC(=O)[C@H](CC(=O)O)NC(=O)[C@H](CO)NC(=O)[C@@H](NC(=O)[C@H](Cc1ccccc1)NC(=O)[C@@H](NC(=O)CNC(=O)[C@H](CCC(=O)O)NC(=O)CCNC(=O)C(C)(C)c1cccnc1)[C@@H](C)O)[C@@H](C)O)[C@@H](C)CC)[C@@H](C)CC)C(C)C)C(=O)N[C@@H](C)C(=O)NCC(=O)NCC(=O)N1CCC[C@H]1C(=O)N[C@@H](CO)C(=O)N[C@@H](CO)C(=O)NCC(=O)N[C@@H](C)C(=O)N1CCC[C@H]1C(=O)N1CCC[C@H]1C(=O)N1CCC[C@H]1C(=O)N[C@@H](CO)C(N)=O [Compound 239] ({X1-βAla}-EGTFTSDYSI[Aib]LDKIAQK([AEEA-AEEA-γGlu-C20 diacid])AFVQWLIAGGPSSGAPPPS-NH2) | < 1000 nM | < 0.1 nM | 91% | 1 to 10 nM | 99% | > 1000 nM |
| CC[C@H](C)[C@H](NC(=O)[C@H](CO)NC(=O)[C@H](CCCCNC(=O)COCCOCCNC(=O)COCCOCCNC(=O)CC[C@H](NC(=O)CCCCCCCCCCCCCCCCCCC(=O)O)C(=O)O)NC(=O)[C@H](CC(=O)O)NC(=O)[C@H](CO)NC(=O)[C@@H](NC(=O)[C@H](Cc1ccccc1)NC(=O)[C@@H](NC(=O)CNC(=O)[C@H](CCC(=O)O)NC(=O)CCNC(=O)C(C)(C)c1cc(F)cc(C#N)c1)[C@@H](C)O)[C@@H](C)O)C(=O)N[C@@H](Cc1ccc(O)cc1)C(=O)N[C@@H](CC(C)C)C(=O)N[C@@H](CC(=O)O)C(=O)N[C@@H](CCCCN)C(=O)N[C@@H](CCC(N)=O)C(=O)N[C@@H](C)C(=O)N[C@@H](C)C(=O)NC(C)(C)C(=O)N[C@@H](CCC(=O)O)C(=O)N[C@@H](Cc1ccccc1)C(=O)N[C@H](C(=O)N[C@@H](CC(N)=O)C(=O)N[C@@H](Cc1c[nH]c2ccccc12)C(=O)N[C@@H](CC(C)C)C(=O)N[C@@H](CC(C)C)C(=O)N[C@@H](C)C(=O)NCC(=O)NCC(=O)N1CCC[C@H]1C(=O)N[C@@H](CO)C(=O)N[C@@H](CO)C(=O)NCC(=O)N[C@@H](C)C(=O)N1CCC[C@H]1C(=O)N1CCC[C@H]1C(=O)N1CCC[C@H]1C(=O)N[C@@H](CO)C(N)=O)C(C)C [Compound 167] ({Isobutyryl(2-(3-CN-5-F-Ph))-βAla}-EGTFTSDK([AEEA-AEEA-γGlu-C20 diacid])SIYLDKQAA[Aib]EFVNWLLAGGPSSGAPPPS-NH2) | > 1000 nM | 0.1 to 1 nM | 108% | 10 to 100 nM | 91% | > 1000 nM |
